Reference: PMC5081312, “Antifouling phenyl ethers and other compounds from the invertebrates and their symbiotic fungi collected from the South China Sea” (AMB Express, 2016)
Like-named read-outs stand apart in the source and are kept apart here. Starred links: 1 amine or outer side, 2 acyl side, 3 side chain; linkers in the order of their positions; H or OH if unused. Non-standard residues stand in square brackets, D forms with d. Residues, ends and D or L forms follow the SMILES beside them. X1 = O=C(c1cc(O)ccc1N[*:1])[*:2]

Assays:
[1] = system: cyprids of barnacle B. amphitrite; experiment: Anti-larval settlement bioassay (antifouling activity and larval toxicity); assay type: in vivo; conditions: for LC50/EC50 ratio (therapeutic ratio): B. amphitrite cyprids, ratio >15 considered non-toxic; for LC50 / EC50: cyprids of B. amphitrite, 48 h at 28 °C; for LC50: concentration where 50% of larvae were dead; for EC50: concentration where 50% of larvae were inhibited to settle vs negative control, read-out: EC50 (larval settlement inhibition); for inhibition of larval settlement in preliminary screening: B. amphitrite, at 25.0 μg ml^−1
Method: (§1) The newly released nauplii were screened with the aperture of 90 μm. The newly released nauplii were raised in filtered seawater (FSW) at 28 °C with mild aeration and fed with Chaetoceros gracilis Schutt at 1 × 10^6 cells ml^−1. The nauplius larvae transformed into cyprids (ready to attach and metamorphose) after 3.5 days. Newly transformed cyprids were kept in filtered seawater at 4 °C overnight before being used in the anti-larval settlement bioassay.
(§2) The antifouling activity was evaluated as larval settlement inhibition against the cyprids of barnacle B. amphitrite using 24-well polystyrene plates (Nunc, Naperville, CA, USA). Each compound was dissolved in a stock solution of DMSO with the concentration of 50 mg ml^−1, and then diluted 1000 times with FSW to 50 μg ml^−1. The compound was further transferred into FSW to make up the following test solution with the concentrations ranging from 25 to 0.50 μg ml^−1. One millilitre of the test solution and 16–20 larvae were allocated to each well of the 24-well plate. Each concentration had three replicate wells. The plates were cultivated in darkness for 48 h at 28 °C. The effects of the test compounds against the larvae settlement were determined by examining the plates under a dissecting microscope to check for (1) settled larvae (attached and metamorphosed), (2) swimming larvae, as well as (3) any possible toxic effects of the treatments (dead and paralyzed). The number of the settled larvae was expressed as a percentage of the total number of larvae per well. Each compound was tested by triplicate experiments using three different batches of larvae.
(§3) The EC50 and LC50 values of each compound were calculated according to the records of anti-larval settlement experiments. […] Then a concentration–response curve was plotted and a tread line was set up.

[2] = as above; assay type: in vivo; conditions: Balanus (Amphibalanus) amphitrite (barnacle cyprid larvae), in vivo, other: larvae immersed in test solution; cyprids of B. amphitrite, 48 h at 28 °C, concentration where 50% of larvae were dead
Method: as §1, §2, §3

Compound | LC50/EC50 ratio (therapeutic ratio) [1] | LC50 [1] [µM] | EC50 [1] [µM] | LC50 at 48 h [2] [µM] | EC50 ([1]; Amphibalanus amphitrite, 48 h) [µM] | inhibition of larval settlement in preliminary screening [1]
1-Formyl-4-methyl-7-isopropylazulene [compound 17] | >16.1 | > 236 | 14.7 |  |  | 
CC(C)C(C)CCC(C)C1CCC(C2=CC(O)C3CC(O)CCC3(C)C2=O)C1(C)CCO (mixture of isomers) [compound 24, (24R)-and(24S)-3β,6α,11-Trihydroxy-methyl-9,11-seco-5α-cholest-7-en-9-one] |  | > 112 | > 55.8 |  |  | 
CCCOc1cc(C)cc(Oc2cc(C)cc(O)c2)c1 [compound 7, 3-O-propyl-diorcinol] | 11.4 |  | 9.82 | 112 | < 10 | 
CCCCCOc1cc(C)cc(Oc2cc(C)cc(O)c2)c1 [compound 8, 3-O-pentyl-diorcinol] | >5.99 |  |  | > 167 | 27.9 | 
CC(=O)Oc1cc(C)cc(Oc2cc(C)cc(O)c2)c1 [compound 9, 3-O-acetyl-diorcinol] |  |  |  | 64.3 |  | 
CC(=O)Oc1cc(C)cc(Oc2cc(C)cc(OC(C)=O)c2)c1 [compound 11, 3,3′-O-diacetyl-diorcinol] |  |  |  | 49.4 |  | 
CCCCCOc1cc(C)cc(Oc2cc(C)cc(OCCCCC)c2)c1 [compound 12, 3,3′-O-dipentyl-diorcinol] | >11.1 |  |  | > 135 | 12.2 | 
Cc1cc(C=O)c2c(C)ccc(C(C)C)cc1-2 [compound 16, 1-Formylguaiazulene] |  |  |  | 221 | 42 | 
Cc1cc(C=O)c2c(C)cc3c(cc1-2)[C@@H](C)CO3 [compound 18, Ochracenoid A] |  |  |  | 208 | 83.3 | 
CC1=CC(=O)c2c1cc(C(C)C)c(C=O)c2C [compound 19, 3,8-Dimethyl-5-isopropyl-6-formylindenone] |  | > 219 | > 110 |  |  | 
CC1=CC(=O)c2c(C)cc(C(=O)C(C)C)cc21 [compound 20, Ochracenoid B] |  | > 219 | > 110 |  |  | 
CC1=CC(=O)c2c(C)cc3oc(=O)c(C)c-3cc21 [compound 21, Ketolactone] |  |  |  | > 208 | > 104 | 
CC(C)CCC(C)C1CCC(C2=CC(O)C3CC(O)CCC3(C)C2=O)C1(C)CCO (stereo not drawn) [compound 23, 3β,6α,11-Trihydroxy-24-nor-9,11-seco-5α-cholest-7-en-9-one] |  | 59.5 | 10.7 |  |  | completely inhibited
CC(C)C=CC(C)C1CCC(C2=CC(O)C3CC(O)CCC3(C)C2=O)C1(C)CCO (stereo not drawn) [compound 25, (22E)-3β,6α,11-Trihydroxy-24-nor-9,11-seco-5α-cholesta-7,22-dien-9-one] |  | 59.8 | 29.9 |  |  | completely inhibited
CC(C)CCCC(C)C1CCC(C2=CC(O)C3CC(O)CCC3(C)C2=O)C1(C)CCO (stereo not drawn) [compound 26, 3β,6α,11-Trihydroxy-9,11-seco-5α-cholest-7-en-9-one] |  | 57.6 | 28.6 |  |  | completely inhibited
C=C(CCC(C)C1CCC(C2=CC(O)C3CC(O)CCC3(C)C2=O)C1(C)CCO)C(C)C (stereo not drawn) [compound 27, 3β,6α,11-Trihydroxy-9,11-seco-5α-cholesta-7,24(28)-dien-9-one] |  | > 56.1 | > 56.1 |  |  | 
CC(C)C(C)C=CC(C)C1CCC(C2=CC(O)C3CC(O)CCC3(C)C2=O)C1(C)CCO [compound 28, (22E,24R)-3β,6α,11-trihydroxy-24-Methyl-9,11-seco-5α-cholesta-7,22-dien-9-one] | >1.25 | > 56.1 | 44.8 |  |  | 
CC(C)CC=CC(C)C1CCC(C2=CC(O)C3CC(O)CCC3(C)C2=O)C1(C)CCO (stereo not drawn) [compound 29, (22E)-3β,6α,11-Trihydroxy-9,11-seco-5α-cholesta-7,22-dien-9-one] |  | 57.9 | 14.7 |  |  | 
CC(=O)OCCC1(C)C(C2=CC(OC(C)=O)C3CC(O)CCC3(C)C2=O)CCC1C(C)C=CCC(C)C (stereo not drawn) [compound 30, (22E)-6,11-Diacetoxy-3-hydroxy-9,11-seco-5α-cholesta-7,22-dien-9-one] | 16.1 | 96.8 | 6.01 |  |  | 
CC(=O)OCCC1(C)C(C2=CC(OC(C)=O)C3CC(OC(C)=O)CCC3(C)C2=O)CCC1C(C)C=CCC(C)C (stereo not drawn) [compound 31, (22E)-3,6,11-Triacetoxy-9,11-seco-5α-cholesta-7,22-dien-9-one] | 8.00 | 96.8 | 12.1 |  |  | 

Compound | LC50/EC50 ratio (therapeutic ratio) [1] | LC50 [1] [µM] | EC50 [1] [µM] | LC50 at 48 h [2] [µM] | EC50 ([1]; Amphibalanus amphitrite, 48 h) [µM] | inhibition of larval settlement in preliminary screening [1]
C[C@]12CCC[C@H](O1)c1c(cc3c(c1O)C(=O)c1c(O)cc(O)cc1C3=O)O2 [compound 32, Averufin] | >14.7 | > 136 | 9.27 |  |  | 
COc1cc(O)cc2c1C(=O)c1c(cc3c(c1O)[C@H]1O[C@](C)(CC[C@@H]1O)O3)C2=O [compound 33, 8-O-methylnidurufin] | >8.75 | > 126 | 14.4 |  |  | 
C[C@]12CC[C@H](O)[C@H](O1)c1c(cc3c(c1O)C(=O)c1c(O)cc(O)cc1C3=O)O2 [compound 34, Nidurufin] |  | > 130 | > 65.1 |  |  | 
COc1cc(O)cc2c1C(=O)c1c(O)cc(CO)cc1C2=O [compound 35, Questinol] |  | > 167 | > 83.3 |  |  | 
COc1cc(O)cc2c1C(=O)c1c(O)cc(CO)c(O)c1C2=O [compound 36, ω-Hydroxyrubrocristin] |  | > 158 | > 79.1 |  |  | 
COc1cc(O)c(-c2c3c(c(O)c4c(OC)cc(O)cc24)C(=O)C=C(C)C3=O)c2cc3c(c(O)c12)C(=O)C[C@@](C)(O)C3 [compound 37, Asperinine A] | >2.88 | > 87.7 | 30.5 |  |  | 
COc1cc(O)c(-c2c3c(c(O)c4c(OC)cc(O)cc24)C(=O)C=C(C)C3=O)c2cc3c(c(O)c12)C(=O)C[C@@](C)(O)C3 [compound 38, Asperinine B] | >2.22 | > 87.7 | 39.5 |  |  | 
CC[C@H](O)c1cc(O)c2c(c1)C(=O)c1cc(O)cc(O)c1C2=O [compound 39, Rhodoptilometrin] | 13.4 | 159 | 11.9 |  |  | 
C=CC(C)(C)c1[nH]c2ccc(CC=C(C)C)cc2c1C=C1NC(=O)C2(C=C3c4cc(O)cc(OC)c4C(=O)c4c(O)cc(C)c(c43)O2)NC1=O (stereo not drawn) [compound 41, 7-O-methylvariecolortide A] |  | > 74.5 | > 74.5 |  |  | 
C=CC(C)(C)c1[nH]c2ccccc2c1/C=C1\NC(=O)C2(C=C3c4cc(O)cc(O)c4C(=O)c4c(O)cc(C)c(c43)O2)NC1=O (stereo not drawn) [compound 42, Variecolortide B] |  | > 84.9 | > 84.9 |  |  | 
COc1cc(O)cc(C)c1C(=O)O[C@@H]1[C@H](O)[C@@H](CO)O[C@H]1n1ccc(=O)[nH]c1=O [compound 48, Kipukasin H] |  | > 123 | > 61.3 |  |  | 
COc1cc(C)c(C(=O)O[C@@H]2[C@H](O)[C@@H](CO)O[C@H]2n2ccc(=O)[nH]c2=O)c(OC)c1 [compound 49, Kipukasin E] |  | > 59.2 | > 59.2 |  |  | 
COc1cc(C)c(C(=O)O[C@H]2[C@@H](O)[C@H](n3ccc(=O)[nH]c3=O)O[C@@H]2CO)c(OC)c1 [compound 50, Kipukasin D] |  | > 59.2 | > 59.2 |  |  | 
COc1cc(C)c(C(=O)O[C@@H]2[C@H](OC(C)=O)[C@@H](COC(C)=O)O[C@H]2n2ccc(=O)[nH]c2=O)c(OC)c1 [compound 51, Diacetylkipukasin E] | >2.22 | > 98.8 | 44.5 |  |  | 
COc1cc(C)c(C(=O)O[C@H]2[C@@H](OC(C)=O)[C@H](n3ccc(=O)[nH]c3=O)O[C@@H]2COC(C)=O)c(OC)c1 [compound 52, Diacetylkipukasin D] |  | > 98.8 | > 49.4 |  |  | 
COC(=O)c1ccccc1NC(=O)[C@H](CC[S+](C)[O-])NC(=O)c1cnc2c(n1)c(=O)n(C)c(=O)n2C (stereo partly drawn) [compound 53, Penilumamide] |  | > 96.9 | > 96.9 |  |  | 
C[C@H](NC(=O)c1cnc2c(n1)c(=O)n(C)c(=O)n2C)C(=O)Nc1ccccc1C(N)=O [compound 54, Penilumamide D] |  | > 58.8 | > 58.8 |  |  | 
C[C@@H]1NC(=O)[C@H](Cc2ccc(O)cc2)NC(=O)c2cc(O)ccc2NC(=O)[C@@H]2CCCN2C(=O)[C@H](C)NC1=O [compound 55, Asperpeptide A] (cyclo(AAP[X1]Y)) |  | > 46.6 | > 46.6 |  |  | 
Variecolortide C [compound 40] |  | > 82.9 | > 82.9 |  |  | 
